Test results: patent US4000281A, “Pyrazole derivatives” (priority 1971, dated 1976)
Converted amounts (≈) assume the structure as drawn. Read-outs that look alike come from different tables or passages of the source.

Assays:
Herpes Simplex [1] = assay: microbe, parasite or virus in culture; type: cell-based, rabbit; settings: Oryctolagus cuniculus, 96 h; dose of 250 μg; tissue first infected, compound in overlay; 50% considered significant; read-out: plaque-reduction
[2] = system: rhinovirus type 39 (strain 209); assay: Gradient plate plaque-reduction technique in HeLa cells, rhinovirus type 39; type: cell-based, human; set-up: key: +: active
Procedure: (§1) A further series of tests was performed in which the inhibitory concentrations of 3-(4-pyridyl)-4-(2-hydroxyphenyl)-5-ethylpyrazole against various human types of rhinovirus were determined by the gradient plate plaque-reduction technique. Cultures of HeLa cancer cells were used of which two were prepared for each test. One culture was treated with the above compound which was applied in gradient while the other culture served as control. Both cultures were then infected with a human type of rhinovirus. The inhibitory concentration was determined by measuring the zone of inhibition on the cellsheet. Six types of rhinovirus were employed and the following results registered.

[3] = system: Influenza virus Maryland B; assay: Mouse-Survival Test (Test No. 1), Influenza Maryland B; type: in vivo, mice; settings: for Survival Percent: virus dose 79 multiples of LD50; for S.I.: virus dose 79 multiples of LD50, significant if >1.24
[4] = system: rhinovirus type 44 (strain F01 3744); assay: Gradient plate plaque-reduction technique in HeLa cells, rhinovirus type 44; type: cell-based, human; set-up: key to ACTIVITY: +: active; -: inactive
Procedure: as §1

[5] = system: rhinovirus type 7 (SF1470); assay: Inhibition of rhinovirus cytopathogenic effect in human embryonic lung cultures, type 7; type: cell-based; settings: 50 and 75 μgm/ml
Procedure: (§2) Other tests were carried out to determine the inhibitory effect of 3-(4-pyridyl)-4-(2-hydroxyphenyl)-5-ethylpyrazole on various types of rhinovirus.
(§3) In each test two cultures of human embryonic lung were prepared of which one was treated with the above compound while the other served as control. The cultures were then infected with a strain of rhinovirus. The compound was used in concentrations of 50 and 75 μgm/ml and was considered to be active if the cytopathogenic effect of the rhinovirus was reduced by at least 75% as compared to the control culture. This cytopathogenic effect was determined by counting the number of plaques formed by destroyed cells.
(§4) Seven human types of rhinovirus were employed and the following results registered: […]

Influenza PR8 = assay: 48-Hour Mouse Test (Test No. 2), Influenza PR8; type: in vivo, mice; settings: virus dose not ascertained, read-out: Log Reductions (EID50) as compared with controls
Herpes Simplex [6] = assay: microbe, parasite or virus in culture; type: cell-based, rabbit; settings: Oryctolagus cuniculus, 96 h; dose of 250 μg; virus pretreated with compound one hour; 50% considered significant; read-out: plaque-reduction
[7] = system: rhinovirus type 6 (SF1349); assay: Inhibition of rhinovirus cytopathogenic effect in human embryonic lung cultures, type 6; type: cell-based; settings: 50 and 75 μgm/ml
Procedure: as §2, §3, §4

Influenza virus Jap 305 = assay: Mouse-Survival Test (Test No. 1), Influenza Jap 305; type: in vivo, mice; settings: for S.I.: significant if >1.24
[8] = system: rhinovirus type 14 (prototype); assay: Inhibition of rhinovirus cytopathogenic effect in human embryonic lung cultures, type 14; type: cell-based; settings: 50 and 75 μgm/ml
Procedure: as §2, §3, §4

[9] = system: rhinovirus type 50 (strain A2 No.58); assay: Gradient plate plaque-reduction technique in HeLa cells, rhinovirus type 50; type: cell-based, human; set-up: key: +: active
Procedure: as §1

Influenza virus Swine A = type: in vivo, mice; settings: 500 mg/kg IP
[10] = system: rhinovirus type 3 (prototype); assay: Inhibition of rhinovirus cytopathogenic effect in human embryonic lung cultures, type 3; type: cell-based; settings: 50 and 75 μgm/ml
Procedure: as §2, §3, §4

[11] = system: rhinovirus type 14 (strain 1059); assay: Gradient plate plaque-reduction technique in HeLa cells, rhinovirus type 14; type: cell-based, human; set-up: key to ACTIVITY: +: active; -: inactive
Procedure: as §1

Influenza Swine A = assay: animal or person; type: in vivo, mice; settings: in Mus musculus, 48 h, read-out: Log Reductions (EID50) as compared with controls
[12] = system: rhinovirus type 55 (strain Wis 315E); assay: Gradient plate plaque-reduction technique in HeLa cells, rhinovirus type 55; type: cell-based, human; set-up: key to ACTIVITY: +: active
Procedure: as §1

Herpes = assay: Herpes-induced keratitis in the rabbit eye; type: in vivo; settings: local use, 2, 1 and 0.5%
Procedure: Another test was carried out with this same compound in order to evaluate its action against Herpes-induced keratitis in the rabbit eye.

[13] = system: rhinovirus type 8 (prototype); assay: Inhibition of rhinovirus cytopathogenic effect in human embryonic lung cultures, type 8; type: cell-based; settings: 50 and 75 μgm/ml
Procedure: as §2, §3, §4

[14] = system: rhinovirus type 5 (prototype); assay: Inhibition of rhinovirus cytopathogenic effect in human embryonic lung cultures, type 5; type: cell-based; settings: 50 and 75 μgm/ml
Procedure: as §2, §3, §4

Influenza viruses = assay: Mouse-Survival Test (Test No. 1), Influenza virus strain not given; type: in vivo, mice; settings: unidentified influenza virus, 360 h
Influenza Jap 305 = assay: 48-Hour Mouse Test (Test No. 2), Influenza Jap 305; type: in vivo, mice; settings: read-out: Log Reductions (EID50) as compared with controls
[15] = system: rhinovirus type 27 (strain Cor. 28); assay: Gradient plate plaque-reduction technique in HeLa cells, rhinovirus type 27; type: cell-based, human; set-up: key to ACTIVITY: +: active
Procedure: as §1

Influenza virus = type: in vivo, mice; settings: for S.I. / Survival Percent / MDD (Mean Day of Death): intranasal 10% suspension, 25 multiples of LD50; for MDD (Mean Day of Death): virus alone 6.20
[16] = Enterovirus, read-out: MINIMUM INHIBITORY Concentration
[17] = Jap 305, 5 mg/kg IP, virus dose 20 multiples of LD50
[18] = Jap 305, 50 mg/kg IP, virus dose 32 multiples of LD50
[19] = Jap 305, 50 mg/kg PO, virus dose 3.2 multiples of LD50
[20] = Jap 305, 500 mg/kg IP, virus dose 32 multiples of LD50
[21] = Jap 305, 500 mg/kg PO, virus dose 3.2 multiples of LD50
[22] = ip, read-out: Survival Index (S.I.)

**Q.** With `CCc1[nH]nc(-c2ccncc2)c1-c1ccccc1O` [Compound A, 3-(4-pyridyl)-4-(2-hydroxyphenyl)-5-ethylpyrazole] as the compound, how does the inhibition at 250 µg (Herpes Simplex [1]) read?
**A.** 100%

**Q.** What about the ACTIVITY [2] of the same compound?
**A.** +

**Q.** What about the “Survival Percent” value ([3]; 500 mg/kg IP) of the same compound?
**A.** 10%

**Q.** And the S.I. ([3]; 500 mg/kg IP)?
**A.** 1.47

**Q.** And the “Survival Percent” value ([3]; 500 mg/kg PO)?
**A.** 12%

**Q.** And the S.I. ([3]; 500 mg/kg PO)?
**A.** 1.52

**Q.** And the ACTIVITY [4]?
**A.** -

**Q.** And the MIC [4, 16]?
**A.** 30 µg/mL (≈ 113 µM)

**Q.** And the ACTIVITY [5]?
**A.** + (active)

**Q.** And the log reduction at 5 mg/kg (Influenza PR8; PR8, 5 mg/kg IP)?
**A.** 1.41

**Q.** What about the log reduction at 50 mg/kg (Influenza PR8; PR8, 50 mg/kg IP) of the same compound?
**A.** 1.69

**Q.** What about the log reduction at 50 mg/kg (Influenza PR8; PR8, 50 mg/kg PO) of the same compound?
**A.** 1.21

**Q.** What about the log reduction at 500 mg/kg (Influenza PR8; PR8, 500 mg/kg IP) of the same compound?
**A.** 1.87

**Q.** What about the log reduction at 500 mg/kg (Influenza PR8; PR8, 500 mg/kg PO) of the same compound?
**A.** 1.07

**Q.** And the inhibition at 250 µg (Herpes Simplex [6])?
**A.** 60%

**Q.** And the ACTIVITY [7]?
**A.** + (active)

**Q.** What about the “Survival Percent” value (Influenza virus Jap 305; [17]) of the same compound?
**A.** 20%

**Q.** And the S.I. (Influenza virus Jap 305; [17])?
**A.** 1.34

**Q.** And the “Survival Percent” value (Influenza virus Jap 305; [18])?
**A.** 10%

**Q.** And the S.I. (Influenza virus Jap 305; [18])?
**A.** 1.34

**Q.** What about the “Survival Percent” value (Influenza virus Jap 305; [19]) of the same compound?
**A.** 60%

**Q.** And the S.I. (Influenza virus Jap 305; [19])?
**A.** 1.43

**Q.** What about the “Survival Percent” value (Influenza virus Jap 305; [20]) of the same compound?
**A.** 60%

**Q.** And the S.I. (Influenza virus Jap 305; [20])?
**A.** 2.04

**Q.** What about the “Survival Percent” value (Influenza virus Jap 305; [21]) of the same compound?
**A.** 66%

**Q.** What about the S.I. (Influenza virus Jap 305; [21]) of the same compound?
**A.** 1.43

**Q.** And the ACTIVITY [8]?
**A.** + (active)

**Q.** And the ACTIVITY [9]?
**A.** +

**Q.** What about the “Survival Percent” value (Influenza virus Swine A; virus dose 14 multiples of LD50) of the same compound?
**A.** 50%

**Q.** What about the S.I. (Influenza virus Swine A; virus dose 14 multiples of LD50, significant if >1.24) of the same compound?
**A.** 1.52

**Q.** And the ACTIVITY [10]?
**A.** + (active)

**Q.** What about the ACTIVITY [11] of the same compound?
**A.** -

**Q.** And the MIC [11, 16]?
**A.** 30 µg/mL (≈ 113 µM)

**Q.** What about the log reduction at 50 mg/kg (Influenza Swine A; ip) of the same compound?
**A.** 1

**Q.** What about the log reduction at 500 mg/kg (Influenza Swine A; ip) of the same compound?
**A.** 1.8

**Q.** What about the log reduction at 5 mg/kg (Influenza Swine A; po) of the same compound?
**A.** 1.1

**Q.** And the log reduction at 50 mg/kg (Influenza Swine A; po)?
**A.** 1.4

**Q.** And the ACTIVITY [12]?
**A.** +

**Q.** What about the MIC [12, 16] of the same compound?
**A.** 20 µg/mL (≈ 75.4 µM)

**Q.** And the “formation of geographic keratitic lesions as compared to infected control animals” value (Herpes)?
**A.** inhibited the formation of geographic keratitic lesions

**Q.** And the ACTIVITY [13]?
**A.** + (active)

**Q.** And the ACTIVITY [14]?
**A.** + (active)

**Q.** What about the response vs control in vivo at 50 mg/kg (Influenza viruses; [22]) of the same compound?
**A.** 137%

**Q.** What about the response vs control in vivo at 500 mg/kg (Influenza viruses; [22]) of the same compound?
**A.** 171%

**Q.** What about the responders at 50 mg/kg (Influenza viruses; ip, read-out: Survival Percent) of the same compound?
**A.** 0%

**Q.** And the responders at 500 mg/kg (Influenza viruses; ip, read-out: Survival Percent)?
**A.** 37.5%

**Q.** And the response vs control in vivo at 500 mg/kg (Influenza viruses; po, read-out: Survival Index (S.I.))?
**A.** 171%

**Q.** And the responders at 500 mg/kg (Influenza viruses; po, read-out: Survival Percent)?
**A.** 33.3%

**Q.** And the log reduction at 50 mg/kg (Influenza Jap 305; ip)?
**A.** 1.53

**Q.** What about the log reduction at 5 mg/kg (Influenza Jap 305; po) of the same compound?
**A.** 2

**Q.** What about the log reduction at 50 mg/kg (Influenza Jap 305; po) of the same compound?
**A.** 2.7

**Q.** What about the log reduction at 500 mg/kg (Influenza Jap 305; po) of the same compound?
**A.** 2.5

**Q.** What about the ACTIVITY [15] of the same compound?
**A.** +

**Q.** What about the MIC [15, 16] of the same compound?
**A.** 15 to 16 µg/mL (≈ 56.5 to 60.3 µM)

**Q.** What about the S.I. (Influenza virus; 30 min. before infection) of the same compound?
**A.** 1.90

**Q.** And the “Survival Percent” value (Influenza virus; 30 min. before infection)?
**A.** 40%

**Q.** And the “MDD (Mean Day of Death)” value (Influenza virus; 30 min. before infection)?
**A.** 11.80 days

**Q.** And the S.I. (Influenza virus; 2 hr. before infection)?
**A.** 2.07

**Q.** What about the “Survival Percent” value (Influenza virus; 2 hr. before infection) of the same compound?
**A.** 70%

**Q.** What about the “MDD (Mean Day of Death)” value (Influenza virus; 2 hr. before infection) of the same compound?
**A.** 12.80 days

**Q.** And the S.I. (Influenza virus; 4 hr. before infection)?
**A.** 1.88

**Q.** And the “Survival Percent” value (Influenza virus; 4 hr. before infection)?
**A.** 60%

**Q.** What about the “MDD (Mean Day of Death)” value (Influenza virus; 4 hr. before infection) of the same compound?
**A.** 11.70 days

**Q.** What about the S.I. (Influenza virus; 6 hr. before infection) of the same compound?
**A.** 1.90

**Q.** What about the “Survival Percent” value (Influenza virus; 6 hr. before infection) of the same compound?
**A.** 50%

**Q.** What about the “MDD (Mean Day of Death)” value (Influenza virus; 6 hr. before infection) of the same compound?
**A.** 11.80 days

**Q.** And the “persistence of the effect: differences between times of administration” value (Influenza virus; mouse, in vivo)?
**A.** no significant differences

**Q.** And the protective effect (Influenza virus; mouse, in vivo)?
**A.** definite protective effect at all times of administration

**Q.** And the “survival period of the treated animals that did die, relative to controls” value (Influenza virus; mouse, in vivo)?
**A.** approximately twice that of the controls
